Reference: patent US9278902B2, “Crystal form of prostaglandin analogue, and preparation method and use thereof” (Shanghai Techwell Biopharmaceutical Co., Ltd., priority 2012, dated 2016)

Assays:
[1] = Stability test at 40° C., HPLC purity; format: physicochemical
Experimental: As used herein, “HPLC purity” refers to the percentage of the peak area of compound I obtained by area normalization method in the sum of all the peak area in HPLC detection applied to compound I, according to the obtained chromatogram.
(§1) Column: 4.6×250 mm 5 μm C18 column; flow rate: 2 ml/min; injection volume: 10 μl; column temperature: 35° C.; detection wavelength: 217 nm; mobile phase: acetonitrile/water/trifluoroacetic acid; Elution condition: water (60%): acetonitrile (40%): trifluoroacetic acid (0.1%); detection limit: 10 ng.
The purity mentioned in the following Examples is HPLC purity.
(§2) Compound I from example 2, example 3 and example 4 were obtained, and subjected to stability test at 40° C., respectively. […] Therefore, crystalline form B of compound I prepared by the method of the present invention has unique stability.

[2] = cited from earlier work
[3] = Storage stability of crystalline form B by HPLC (0° C., 20° C., 40° C.); format: physicochemical
Experimental: as §1, §2

CCCCC[C@H](O)CC[C@@H]1[C@H]2Cc3cccc(OCC(=O)O)c3C[C@H]2C[C@H]1O [Example 4]
Purity at 0 day (40° C.) ([1]; stability test at 40° C., 0 day (start)): 99.90% | Purity at 10 day (40° C.) ([1]; stored at 40° C., 10 day): 99.91% | Purity at 30 day (40° C.) ([1]; stored at 40° C., 30 day): 99.89% | Purity at 90 day (40° C.) ([1]; stored at 40° C., 90 day): 99.88%

CCCCC[C@H](O)CC[C@@H]1[C@H]2Cc3cccc(OCC(=O)O)c3C[C@H]2C[C@H]1O [Treprostinil]
Stability under physiological conditions [2]: stable

CCCCC[C@H](O)CC[C@@H]1[C@H]2Cc3cccc(OCC(=O)O)c3C[C@H]2C[C@H]1O [crystalline form B of compound I]
Degradation on storage (HPLC) ([3]; stored at 0° C. for 12 months): did not degrade at all | Degradation on storage (HPLC) ([3]; stored at 20° C. for 6 months): did not degrade at all | Degradation on storage (HPLC) ([3]; stored at 40° C. for 2 months): did not degrade at all
